Data: PubChem BioAssay (NCI)
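In this assay, cells in 96-well plates receive the compound at five concentrations for 48 hours. Endpoints are linearly interpolated between the surrounding concentrations. Definition used: TGI = concentration required for complete inhibition of growth.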

Legend:
Test in all cases: NCI tumour cell line growth inhibition, 48 h
OVCAR-5 ovarian = test system: OVCAR-5 ovarian
A498 renal = test system: A498 renal
MOLT-4 leukemia = test system: MOLT-4 leukemia
COLO 205 colon = test system: COLO 205 colon
MCF7 breast = test system: MCF7 breast
ACHN renal = test system: ACHN renal
UACC-62 melanoma = test system: UACC-62 melanoma
U251 CNS = test system: U251 CNS
NCI-H522 lung = test system: NCI-H522 lung
TK-10 renal = test system: TK-10 renal
MDA-MB-435 = test system: MDA-MB-435
EKVX NSCLC = test system: EKVX NSCLC
NCI-H460 lung = test system: NCI-H460 lung
UO-31 renal = test system: UO-31 renal
MDA-MB-231 breast = test system: MDA-MB-231 breast
786-0 renal = test system: 786-0 renal
RXF 393 renal = test system: RXF 393 renal
HOP-92 NSCLC = test system: HOP-92 NSCLC
MDA-N = test system: MDA-N
K-562 leukemia = test system: K-562 leukemia
DU-145 prostate = test system: DU-145 prostate
SF-268 CNS = test system: SF-268 CNS
HCC-2998 colon = test system: HCC-2998 colon
SN12C renal = test system: SN12C renal
MALME-3M melanoma = test system: MALME-3M melanoma
OVCAR-4 ovarian = test system: OVCAR-4 ovarian
SK-MEL-2 melanoma = test system: SK-MEL-2 melanoma
LOX IMVI melanoma = test system: LOX IMVI melanoma
OVCAR-3 ovarian = test system: OVCAR-3 ovarian
CAKI-1 renal = test system: CAKI-1 renal
SF-539 CNS = test system: SF-539 CNS
NCI-H226 lung = test system: NCI-H226 lung
RPMI-8226 leukemia = test system: RPMI-8226 leukemia
CCRF-CEM leukemia = test system: CCRF-CEM leukemia
HCT-15 colon = test system: HCT-15 colon
SK-MEL-28 melanoma = test system: SK-MEL-28 melanoma
A549 NSCLC = test system: A549 NSCLC
NCI-H23 lung = test system: NCI-H23 lung
HOP-62 NSCLC = test system: HOP-62 NSCLC
HCT-116 colon = test system: HCT-116 colon
PC-3 prostate = test system: PC-3 prostate
SW-620 colon = test system: SW-620 colon
KM12 colon = test system: KM12 colon
SK-OV-3 ovarian = test system: SK-OV-3 ovarian
M14 melanoma = test system: M14 melanoma
SF-295 CNS = test system: SF-295 CNS
NCI/ADR-RES ovarian = test system: NCI/ADR-RES ovarian
SNB-19 CNS = test system: SNB-19 CNS
SK-MEL-5 melanoma = test system: SK-MEL-5 melanoma
UACC-257 melanoma = test system: UACC-257 melanoma
HS 578T breast = test system: HS 578T breast
IGROV1 ovarian = test system: IGROV1 ovarian
T-47D breast = test system: T-47D breast
OVCAR-8 ovarian = test system: OVCAR-8 ovarian
HT29 colon = test system: HT29 colon
SR leukemia = test system: SR leukemia
HL-60(TB) leukemia = test system: HL-60(TB) leukemia

In the case of CN(C)CC1CN=C(N)O1 (stereo unspecified), the TGI (OVCAR-5 ovarian) is reported as > 100 µM, the TGI (A498 renal) is reported as > 100 µM and the TGI (MOLT-4 leukemia) is reported as > 100 µM. The TGI (COLO 205 colon) was > 100 µM, the TGI (MCF7 breast) was > 100 µM and the TGI (ACHN renal) was > 100 µM. For the same compound, the TGI (UACC-62 melanoma) was > 100 µM, the TGI (U251 CNS) was > 100 µM and the TGI (NCI-H522 lung) was > 100 µM. The TGI (TK-10 renal) was > 100 µM, the TGI (MDA-MB-435) was > 100 µM and the TGI (EKVX NSCLC) was > 100 µM. The TGI (NCI-H460 lung) was > 100 µM, the TGI (UO-31 renal) was > 100 µM and the TGI (MDA-MB-231 breast) was > 100 µM. For the same compound, the TGI (786-0 renal) was > 100 µM, the TGI (RXF 393 renal) was > 100 µM and the TGI (HOP-92 NSCLC) was > 100 µM. The TGI (MDA-N) was > 100 µM, the TGI (K-562 leukemia) was > 100 µM and the TGI (DU-145 prostate) was > 100 µM. The TGI (SF-268 CNS) was > 100 µM, the TGI (HCC-2998 colon) was > 100 µM and the TGI (SN12C renal) was > 100 µM. For the same compound, the TGI (MALME-3M melanoma) was > 100 µM, the TGI (OVCAR-4 ovarian) was > 100 µM and the TGI (SK-MEL-2 melanoma) was > 100 µM. The TGI (LOX IMVI melanoma) was > 100 µM, the TGI (OVCAR-3 ovarian) was > 100 µM and the TGI (CAKI-1 renal) was > 100 µM. For the same compound, the TGI (SF-539 CNS) was > 100 µM, the TGI (NCI-H226 lung) was > 100 µM and the TGI (RPMI-8226 leukemia) was > 100 µM. For the same compound, the TGI (CCRF-CEM leukemia) was > 100 µM, the TGI (HCT-15 colon) was > 100 µM and the TGI (SK-MEL-28 melanoma) was > 100 µM. The TGI (A549 NSCLC) was > 100 µM, the TGI (NCI-H23 lung) was > 100 µM and the TGI (HOP-62 NSCLC) was > 100 µM. The TGI (HCT-116 colon) was > 100 µM, the TGI (PC-3 prostate) was > 100 µM and the TGI (SW-620 colon) was > 100 µM. For the same compound, the TGI (KM12 colon) was > 100 µM, the TGI (SK-OV-3 ovarian) was > 100 µM and the TGI (M14 melanoma) was > 100 µM. For the same compound, the TGI (SF-295 CNS) was > 100 µM, the TGI (NCI/ADR-RES ovarian) was > 100 µM and the TGI (SNB-19 CNS) was > 100 µM. The TGI (SK-MEL-5 melanoma) was > 100 µM and the TGI (UACC-257 melanoma) was > 100 µM.

With CC1=NN(c2cccc(Cl)c2)C2(SCC(=O)N2c2nc3ccccc3s2)/C1=C\c1ccc(N(C)C)cc1 (stereo unspecified) the TGI (OVCAR-5 ovarian) was > 100 µM, the TGI (A498 renal) was 87.9 µM and the TGI (MOLT-4 leukemia) was > 100 µM. The TGI (MCF7 breast) was > 100 µM, the TGI (ACHN renal) was 84.1 µM and the TGI (U251 CNS) was > 100 µM. For the same compound, the TGI (NCI-H522 lung) was > 100 µM, the TGI (TK-10 renal) was > 100 µM and the TGI (MDA-MB-435) was > 100 µM. For the same compound, the TGI (EKVX NSCLC) was > 100 µM, the TGI (NCI-H460 lung) was > 100 µM and the TGI (UO-31 renal) was > 100 µM. For the same compound, the TGI (HS 578T breast) was 75.7 µM, the TGI (MDA-MB-231 breast) was > 100 µM and the TGI (786-0 renal) was > 100 µM. The TGI (RXF 393 renal) was 44.8 µM, the TGI (HOP-92 NSCLC) was 79.9 µM and the TGI (IGROV1 ovarian) was > 100 µM. The TGI (MDA-N) was > 100 µM, the TGI (K-562 leukemia) was > 100 µM and the TGI (DU-145 prostate) was > 100 µM. For the same compound, the TGI (SF-268 CNS) was > 100 µM, the TGI (T-47D breast) was > 100 µM and the TGI (HCC-2998 colon) was > 100 µM. The TGI (OVCAR-8 ovarian) was > 100 µM, the TGI (OVCAR-4 ovarian) was > 100 µM and the TGI (SK-MEL-2 melanoma) was 57.5 µM. The TGI (LOX IMVI melanoma) was > 100 µM, the TGI (OVCAR-3 ovarian) was > 100 µM and the TGI (CAKI-1 renal) was > 100 µM. The TGI (SF-539 CNS) was > 100 µM, the TGI (HT29 colon) was > 100 µM and the TGI (NCI-H226 lung) was > 100 µM. The TGI (RPMI-8226 leukemia) was > 100 µM, the TGI (CCRF-CEM leukemia) was > 100 µM and the TGI (HCT-15 colon) was > 100 µM. The TGI (SR leukemia) was > 100 µM, the TGI (SK-MEL-28 melanoma) was > 100 µM and the TGI (NCI-H23 lung) was > 100 µM. For the same compound, the TGI (HL-60(TB) leukemia) was > 100 µM, the TGI (HOP-62 NSCLC) was 48.6 µM and the TGI (HCT-116 colon) was > 100 µM. For the same compound, the TGI (PC-3 prostate) was > 100 µM, the TGI (SW-620 colon) was > 100 µM and the TGI (KM12 colon) was > 100 µM. The TGI (SK-OV-3 ovarian) was 39.6 µM, the TGI (M14 melanoma) was > 100 µM and the TGI (SF-295 CNS) was > 100 µM. The TGI (NCI/ADR-RES ovarian) was > 100 µM, the TGI (SK-MEL-5 melanoma) was > 100 µM and the TGI (UACC-257 melanoma) was > 100 µM.
